These results are taken from patent publication US20220087952A1, “ANTI-APICOMPLEXAN COMPOSITIONS” (priority 2019, published 2022).

A short description of data set [1]: Water intake and toxicity of supplemented drinking water in chicks (Example 5). The data set is classed as in vivo. An excerpt: (§1) Water was supplied in 3-liter poultry troughs that were re-filled when needed. Tap water was initially given and water supplementation was initiated three days after chicks' arrival. Water treatments for the uninfected (C) birds were no antisolvent and no gallic acid (C_AS0%_GA0) and 1% antisolvent with 500 ppm of gallic acid (C_AS1%_GA500).
(§2) Water treatments for the infected (T) birds were bi-factorial with 3 levels of antisolvent (AS; 0, 0.5, and 1%) and two levels of gallic acid (GA; 0 and 500 ppm) resulting in 6 groups: […], T_AS0.5%_GA0, T_AS1%_GA0, T_AS0.5%_GA0, T_AS0.5% _GA500, and T_AS1%_GA500.
(§3) Birds were wing-tagged and weighed on infection day and then, 7 days after infection. Half of the birds were weighed and humanely euthanized by exposure to CO2 on day 14 after infection and the second half on day 17 after infection. Water intake was recorded. Droppings were collected from a 1 m^2 paper sheet placed in each group 12 h before each weighing and kept at 4° C. until oocysts were counted under a grated microscope at ×100 and ×400 at days 0, and 7.
Data for body weight (BW) and average daily gain was log-transformed in order to homogenize variances. The C_AS0%_GA0 and […] in order to assess the effect of infection. The C_AS0%_GA0 and the C_AS1%_GA500 were compared to evaluate possible toxicity due to water treatment. […]

Data set [2] concerns Eimeria spp. (Paracox 5 at twenty-fold dose). As to the kind of experiment: Eimeria-infected chicks given supplemented drinking water (Example 5). The data set is classed as in vivo. To be noted: for Body weight of chicks (Means ± SE) / Average daily gain / Oocyst counts in droppings: C uninfected, T infected, AS % antisolvent, GA ppm gallic acid in water. The procedure:
160 chicks allotted to 8 treatments, encompassing two groups of uninfected birds and six groups of Eimeria-infected birds, were tested. Birds were administered water treatment from 7 days of age and infected when 10-days old.
Inoculation was individually, per os, by using a dose of Paracox 5, a live attenuated anticoccidial vaccine including administered at the twenty-fold the recommended dose (Table 2), in a volume of 1 ml, when chicks were 10 days old. Uninfected birds were given the same volume of saline. Eimeria spp were as in Table 2.
as §1, §2, §3
No existing method, based on mono-species Eimeria infection, was satisfactory. The duodenum was examined at three sites (proximal, medial, distal) and a separate score was recorded for each. In contrast, only one score was recorded for the ileum-jejunum, and one for the caeca. Organ scores were termed D (average of 3 sites along the duodenum), J, and C. Three composite scores were established: a. sum of the average duodenal score, the jejunal score and the caecal score; b. sum of the maximal duodenal, jejunal and caecal scores; c. number of lesion-affected organs (1-3).
Data for body weight (BW) and average daily gain was log-transformed in order to homogenize variances. The C_AS0%_GA0 and […] in order to assess the effect of infection. The C_AS0%_GA0 and the C_AS1%_GA500 were compared to evaluate possible toxicity due to water treatment. All groups encompassing bi-factorial levels of AS and GA were compared by bi-factorial ANOVA.
For the analysis of lesions, for each treatment and slaughter day, the Wilcoxon Rank Sum Test was run. Then, using the Iman-Connover method, a rank transformation was done on original data and a two-way ANOVA was run on the ranked data. The treatment x day interaction was significant for J. Sum DJC, and #organs affected and Pairwise comparisons were made by Tukey test.

Data set [3] has the same test system. The description is as above. The data set is classed as in vivo. To be noted: d 14 relative to infection day; C uninfected, T infected; AS % antisolvent, GA ppm gallic acid in water.
For data set [4], the system named is Eimeria arloingi oocyst extracted from goat feces. As to the kind of experiment: In-vitro oocyst sporulation assay (Example 2). The data set is classed as cell-based. As to conditions: in Capra hircus, read-out: sporulation impairment (inhibition of sporulation) compared to control. The procedure: Eimeria-infected feces were collected from goats and stored at 4° C. Later, 3 grams of feces were mixed with 42 ml of tap water. The sample was homogenized and passed through a mesh, after which the filtered liquid was collected into 50 ml tubes. The liquid was then washed three times with cold tap water and centrifuged (1,700 G, 5 minutes, 20° C.). In each wash, the supernatant was carefully removed and approximately 30 to 40 ml of cold water was added. After the last wash, the water was removed and replaced with saturated sugar flotation solution (500 gr sucrose in 320 ml double distilled water), wherein each tube was filled with up to 45 ml of the sugar flotation solution. Each tube was centrifuged twice, wherein after each round of centrifugation, the ring-shaped phase formed on the top of the sugar solution was collected (about 1-2 ml collected after each round) and preserved in a 50 ml plastic tube.
The plastic tube was filled with cold water and centrifuged again. Oocysts were found in the sediment after centrifugation. The water was gently removed and the concentration of the oocysts was evaluated. The oocysts were then stored at 4° C. until use (the use of unsporulated oocysts that are older than two weeks was avoided). It is noted that a 2% potassium dichromate solution may be used for conservation. The unsporulated oocytes were washed in cold phosphate buffered saline (PBS, X10) before use in order to remove potassium dichromate (if used). The concentration of the oocysts was adjusted to approximately 30,000/ml.
Extract was prepared according to Example 1 above. Extract can be mixed with Phosphate buffer saline (PBS, X1, w:w, 1:10) if not perfectly soluble in water.
Each assay was in triplicates for each concentration of extract and gallic acid purchased at Sigma. In addition, six concentrations of gallic acid (50, 150, 250, 350, 450, 550 ppm) were added to 2000 and 4000 ppm of the invention extract to check synergism of gallic acid and the extract on impairment of sporulation. […]

SMILES strings stand for the structures.

Turning to `O=C(O)c1cc(O)c(O)c(O)c1` [Gallic acid, gallic acid], in data set [1] (code: C uninfected, T infected, AS % antisolvent (0.5% = 5,000 ppm, 1% = 10,000 ppm), GA ppm gallic acid in water), the Water intake worked out at 132 ml chick^−1 dr^−1. Moreover, the signs of toxicity result in data set [1] (in vivo) is “No signs of toxicity whatsoever”. The “Body weight of chicks (Means ± SE)” value in data set [2] (D 17 relative to infection day) is 1290.0 ± 83.4 ab; in data set [2] (d 0 relative to infection day), 168.9 ± 4.3; in data set [2] (d 7 relative to infection day), 399.5 ± 13.4 a; in data set [2] (d 14 relative to infection day), 984.4 ± 40.1 ab. For the same compound, the Average daily gain in data set [2] (Days 0-7) was determined as 32.9 ± 1.4 g/day; in data set [2] (Days 8-14), 53.2 ± 2.5 g/day; in data set [2] (Days 14-17), 99.9 ± 6.2 g/day. Besides, the “Oocyst counts in droppings” value in data set [2] (d 0 relative to infection day) is recorded as 0 gr^−1; in data set [2] (d 7 relative to infection day), 10,650 gr^−1; in data set [3], 3,600 gr^−1. In addition, in data set [2] (water treatment from 7 days of age, infection at 10 days, dose in label), the “growth performance / body weight of Eimeria-infected birds, in words” value was “no advantage in adding gallic acid if an AS treatment was given”. In addition, the inhibition at 50 µg/mL in data set [4] came to 25%.

Take `COc1cc(C(=O)O)ccc1O` [vanillic acid]: the inhibition at 50 µg/mL in data set [4] turned out to be 23%.

In the case of `O=C(O)/C=C/c1ccc(O)c(O)c1` [caffeic acid, Caffeic acid], in data set [4], the inhibition at 50 µg/mL was determined as 43%.

In general, inhibition refers to the percentage by which the read-out fell short of the control.
